Calls of active or inactive are those of the source. No cut-off for these calls is given here.
Key:
[1] = test system: Avian myeloblastosis virus; assay: Inhibition of AMV reverse transcriptase activity assessed as incorporation of dGMP in poly(rC)-oligo(dG) at 100 uM; set-up: scale not given: the % may be the effect or the level left
[2] = test system: Avian myeloblastosis virus; assay: Inhibition of AMV reverse transcriptase activity assessed as incorporation of dGMP in poly(rC)-oligo(dG) at 1000 uM; set-up: scale not given: the % may be the effect or the level left
[3] = test system: Avian myeloblastosis virus; assay: Inhibition of AMV reverse transcriptase activity assessed as incorporation of dTMP in poly(rA)-oligo(dT) at 1 uM; set-up: scale not given: the % may be the effect or the level left
[4] = test system: Avian myeloblastosis virus; assay: Inhibition of AMV reverse transcriptase activity assessed as incorporation of dTMP in poly(rA)-oligo(dT) at 10 uM; set-up: scale not given: the % may be the effect or the level left
[5] = test system: Avian myeloblastosis virus; assay: Inhibition of AMV reverse transcriptase activity assessed as incorporation of dTMP in poly(rA)-oligo(dT) at 100 uM; set-up: scale not given: the % may be the effect or the level left
[6] = test system: Avian myeloblastosis virus; assay: Inhibition of AMV reverse transcriptase activity assessed as incorporation of dTMP in poly(rA)-oligo(dT) at 1000 uM; set-up: scale not given: the % may be the effect or the level left
[7] = test system: Avian myeloblastosis virus; assay: Inhibition of AMV reverse transcriptase activity assessed as incorporation of dGMP in poly(rC)-oligo(dG) at 0.1 uM; set-up: scale not given: the % may be the effect or the level left
[8] = test system: Avian myeloblastosis virus; assay: Inhibition of AMV reverse transcriptase activity assessed as incorporation of dGMP in poly(rC)-oligo(dG) at 1 uM; set-up: scale not given: the % may be the effect or the level left
[9] = test system: Avian myeloblastosis virus; assay: Inhibition of AMV reverse transcriptase activity assessed as incorporation of dGMP in poly(rC)-oligo(dG) at 10 uM; set-up: scale not given: the % may be the effect or the level left
[10] = test system: Avian myeloblastosis virus; assay: Inhibition of AMV reverse transcriptase activity assessed as incorporation of dTMP in poly(rA)-oligo(dT) at 0.1 uM; set-up: scale not given: the % may be the effect or the level left
[11] = test system: Avian myeloblastosis virus; assay: Inhibition of AMV reverse transcriptase activity assessed as DNA synthesis treated at 100 uM after 5 mins of initiation of DNA synthesis
Bos taurus [12] = species: Bos taurus; assay: Inhibition of calf thymus DNA polymerase-alpha activity using activated calf thymus DNA at 10 uM
Bos taurus [13] = species: Bos taurus; assay: Inhibition of calf thymus DNA polymerase-alpha activity using activated calf thymus DNA at 1000 uM

Compound	Activity [1]	Activity [2]	Activity [3]	Activity [4]	Activity [5]	Activity [6]	Activity [7]	Activity [8]	Activity [9]	Activity [10]	Activity [11]	Activity (Bos taurus [12])	Activity (Bos taurus [13])
O=C(O[C@H]1O[C@@H]2COC(=O)c3cc(O)c(O)c(O)c3-c3c(cc(O)c(O)c3O)C(=O)O[C@H]2[C@@H]2OC(=O)c3cc(O)c(O)c(O)c3-c3c(cc(O)c(O)c3O)C(=O)O[C@@H]12)c1cc(O)c(O)c(Oc2c(C(=O)O[C@H]3O[C@@H]4COC(=O)c5cc(O)c(O)c(O)c5-c5c(cc(O)c(O)c5O)C(=O)O[C@H]4[C@@H]4OC(=O)c5cc(O)c(O)c(O)c5-c5c(cc(O)c(O)c5O)C(=O)O[C@@H]34)cc(O)c(O)c2O)c1	5%	6%	27%	20%	19%	2%	80%	68%	7%	86%	–	–	–
O=C(O[C@@H]1O[C@@H]2COC(=O)c3cc(O)c(O)c(O)c3-c3c(cc(O)c(O)c3O)C(=O)O[C@H]([C@H]1O)[C@@H]2O)c1cc(O)c(O)c(O)c1	30%	0%	92%	88%	25%	3%	92%	72%	64%	88%	–	–	–
O=C[C@H](OC(=O)c1cc(O)c(O)c(O)c1)[C@@H](OC(=O)c1cc(O)c(O)c(O)c1)[C@@H]1OC(=O)c2cc(O)c(O)c(O)c2-c2c(cc(Oc3c(C(=O)O[C@@H](C=O)[C@@H](OC(=O)c4cc(O)c(O)c(O)c4)[C@@H]4OC(=O)c5cc(O)c(O)c(O)c5-c5c(cc(O)c(O)c5O)C(=O)OC[C@H]4O)cc(O)c(O)c3O)c(O)c2O)C(=O)OC[C@H]1O	10%	15%	19%	4%	6%	6%	105%	76%	22%	82%	–	–	–
O=c1oc2c(O)c(O)cc3c(=O)oc4c(O)c(O)cc1c4c23	20%	3%	77%	45%	18%	0%	71%	80%	49%	93%	–	–	–
O=C1OC[C@H]2O[C@@H](O)[C@H](O)[C@@H](O)[C@@H]2OC(=O)c2cc(O)c(O)c(O)c2-c2c(O)c(O)c3oc(=O)c4c(c(O)c(O)c5oc(=O)c2c3c54)-c2c1cc(O)c(O)c2O	31%	6%	62%	35%	8%	1%	105%	109%	64%	119%	–	–	–
Oc1cc(O)c2c(c1)O[C@H](c1ccc(O)c(O)c1)[C@H](O)[C@H]2c1c(O)cc(O)c2c1O[C@H](c1ccc(O)c(O)c1)[C@H](O)C2	64%	9%	116%	97%	98%	55%	85%	93%	80%	102%	–	–	–
O=C(O[C@@H]1O[C@@H]2COC(=O)c3cc(O)c(O)c(O)c3-c3c(cc(O)c(O)c3O)C(=O)O[C@H]2[C@H](OC(=O)c2cc(O)c(O)c(O)c2)[C@H]1OC(=O)c1cc(O)c(O)c(O)c1)c1cc(O)c(O)c(Oc2c(C(=O)O[C@H]3O[C@@H]4COC(=O)c5cc(O)c(O)c(O)c5-c5c(cc(O)c(O)c5O)C(=O)O[C@H]4[C@H](OC(=O)c4cc(O)c(O)c(O)c4)[C@H]3OC(=O)c3cc(O)c(O)c(O)c3)cc(O)c(O)c2O)c1	8%	1%	25%	11%	4%	1%	102%	68%	13%	73%	–	–	–
O=C(OC[C@H]1O[C@@H](OC(=O)c2cc(O)c(O)c(O)c2)[C@H](OC(=O)c2cc(O)c(O)c(O)c2)[C@@H](OC(=O)c2cc(O)c(O)c(O)c2)[C@@H]1OC(=O)c1cc(O)c(O)c(O)c1)c1cc(O)c(O)c(O)c1	27%	15%	39%	30%	25%	7%	80%	62%	44%	67%	–	–	–
O=C1O[C@@H]2[C@@H](OC(=O)c3cc(O)c(O)c(O)c3-c3c1cc(O)c(O)c3O)[C@H](O)O[C@@H]1COC(=O)c3cc(O)c(O)c(O)c3-c3c(O)c(O)c4oc(=O)c5c(c(O)c(O)c6oc(=O)c3c4c65)-c3c(cc(O)c(O)c3O)C(=O)O[C@@H]21	9%	4%	22%	19%	11%	2%	85%	76%	18%	85%	–	–	–
O=C(O)C[C@@H]1C(=O)O[C@H]2[C@@H]3OC(=O)c4cc(O)c(O)c(O)c4-c4c(cc(O)c(O)c4O)C(=O)OC[C@H]2O[C@@H](OC(=O)c2cc(O)c(O)c(O)c2)[C@@H]3OC(=O)c2cc(O)c(O)c3c2[C@H]1[C@H](O)C(=O)O3	68%	8%	90%	48%	31%	6%	94%	67%	74%	106%	–	–	–
O=C(O)C[C@H]1C(=O)O[C@H]2[C@H](OC(=O)c3cc(O)c(O)c(O)c3)[C@@H](OC(=O)c3cc(O)c(O)c4c3[C@H]1[C@H](O)C(=O)O4)[C@H](OC(=O)c1cc(O)c(O)c(O)c1)O[C@@H]2COC(=O)c1cc(O)c(O)c(O)c1	27%	1%	71%	22%	24%	8%	75%	67%	46%	109%	–	–	–
O=C1OC[C@H]2OC(O)[C@@H]3OC(=O)c4cc(O)c(O)c(O)c4-c4c(cc(O)c(O)c4O)C(=O)O[C@H]3[C@@H]2OC(=O)c2cc(O)c(O)c(O)c2-c2c1cc(O)c(O)c2O (stereo partly drawn)	7%	10%	51%	15%	17%	4%	80%	73%	41%	88%	–	–	–
O=C(O)c1cc(O)c(O)c(O)c1	91%	98%	93%	75%	75%	78%	122%	103%	99%	84%	–	–	–
O=C(O[C@@H]1O[C@@H]2COC(=O)c3cc(Oc4c(C(=O)O[C@@H]5O[C@@H]6COC(=O)c7cc(O)c(O)c(O)c7-c7c(cc(O)c(O)c7O)C(=O)O[C@H]6[C@H](OC(=O)c6cc(O)c(O)c(O)c6)[C@H]5OC(=O)c5cc(O)c(O)c(O)c5)cc(O)c(O)c4O)c(O)c(O)c3-c3c(cc(O)c(O)c3O)C(=O)O[C@H]2[C@H](OC(=O)c2cc(O)c(O)c(O)c2)[C@H]1OC(=O)c1cc(O)c(O)c(O)c1)c1cc(O)c(O)c(O)c1	12%	2%	16%	7%	5%	6%	111%	54%	12%	55%	–	–	–
O=C[C@@H]1OC(=O)c2c3c(O)c(O)c(O)c2-c2c(cc(O)c(O)c2O)C(=O)O[C@H]1[C@@H]1OC(=O)c2c(c(O)c(O)c(O)c2-c2c(cc(O)c(O)c2O)C(=O)O[C@H]1COC(=O)c1cc(O)c(O)c(O)c1)O[C@H]1[C@@H]2OC(=O)c4cc(O)c(O)c(O)c4-c4c(cc(O)c(O)c4O)C(=O)O[C@H]2[C@H](OC(=O)c2cc(O)c(O)c(O)c2)O[C@@H]1CO3	14%	20%	24%	4%	5%	3%	106%	73%	22%	66%	–	–	–
COc1cc2c[n+](C)c3c4cc5c(cc4ccc3c2cc1OC)OCO5	5%	2%	102%	11%	1%	1%	116%	85%	88%	85%	–	–	–
O=C1O[C@H]2[C@@H]3OC(=O)c4cc(O)c(O)c(O)c4-c4c(cc(O)c(O)c4O)C(=O)OC[C@H]2O[C@@H](OC(=O)c2cc(O)c(O)c(O)c2)[C@@H]3OC(=O)c2cc(O)c(O)c3c2[C@@H]2C1=CC(=O)[C@](O)(O3)C2(O)O	15%	12%	39%	12%	6%	6%	103%	93%	62%	89%	Active	inactive	Active

— ChEMBL document CHEMBL1151661, “Inhibitory effect of tannins on reverse transcriptase from RNA tumor virus” (J Nat Prod, 1985)
